Data on 50 compounds can be found in the Deep4Chem optical property database.

The structures appear in SMILES notation.

A short description of this data set: solvent given as SMILES.

Compound `CC(C)(C)c1cc(C#Cc2ccc3c(C#Cc4cc(C(C)(C)C)cc(C(C)(C)C)c4)cc4c5cc(C#Cc6cc(C(C)(C)C)cc(C(C)(C)C)c6)ccc5c(C#Cc5cc(C(C)(C)C)cc(C(C)(C)C)c5)cc4c3c2)cc(C(C)(C)C)c1` yielded an absorption maximum (in ClCCl) of 416 nm.

`C=C[Si](c1c2ccccc2cc2ccccc12)(c1c2ccccc2cc2ccccc12)c1c2ccccc2cc2ccccc12`: the absorption maximum (in ClC(Cl)Cl) is 404 nm.

Compound `C(=C(c1ccccc1)c1ccccc1)c1ccc(-c2ccc(-c3nc4c5ccccc5c5ccccc5c4n3-c3cccc(-c4ccc(C=C(c5ccccc5)c5ccccc5)cc4)c3)cc2)cc1` showed an absorption maximum (in C1CCOC1) of 340 nm.

Turning to `O=C1OC(=O)c2ccc(N(c3ccccc3)c3c4ccccc4cc4ccccc34)c3cccc1c23`, the absorption maximum (in C1CCOC1) is listed as 450 nm, the absorption maximum (in CCCCCC) is listed as 440 nm, the absorption maximum (in ClCCl) worked out at 462 nm and the absorption maximum (in c1ccccc1) came out at 450 nm.

On to `CC(=O)c1nc(-c2ccc(N(c3ccccc3)c3ccccc3)cc2)oc1C`, for which the absorption maximum came out at 332 nm (in CC#N); 324 nm (in CCCCCC); 333 nm (in CCO); 326 nm (in CCOC(C)=O); 326 nm (in CCOCC); 328 nm (in ClCCl).

Consider `CCn1c2cc(C(C)(C)C)ccc2c2c3nsnc3c3c4ccc(C(C)(C)C)cc4n(CC)c3c21`, for which the absorption maximum is listed as 430 nm (in CN(C)C=O), 425 nm (in Cc1ccccc1) and 430 nm (in ClCCl).

Take `c1ccc(-n2c(-c3cccc4ccccc34)nc3c4ccccc4c4ccccc4c32)cc1`: the absorption maximum (in Cc1ccccc1) was found to be 356 nm.

For `C[Si](C)(C)c1ccc(C#N)c2ccccc12`, the absorption maximum (in C1CCCCC1) came to 315 nm.

For the compound `COc1ccc(O)c(-c2[nH]c(=O)n3c2-c2ccccc2C3=O)c1`, the absorption maximum by setting is: (in CC#N) 395 nm; (in CO) 401 nm; (in ClCCl) 399 nm.

For the setting “in O”, `COc1ccc(-c2cc(N3CCCCC3)c(C#N)c3c2-c2cccc4cccc-3c24)cc1` returned an absorption maximum of 430 nm.

Compound `Clc1ccc(/C=C/c2ccncn2)cc1` had an absorption maximum (in ClCCl) of 310 nm.

`C[Si]1(C)c2ccc(-c3ccc(-c4cccs4)s3)cc2C=Cc2cc(-c3ccc(-c4cccs4)s3)ccc21`: for the setting “in ClCCl”, the absorption maximum is 398 nm.

Compound `COC(=O)C(N)Cc1ccc(O[Si]2(Oc3ccc(CC(N)C(=O)OC)cc3)n3c4c5ccccc5c3/N=C3N=C(/N=c5/c6ccccc6/c(n52)=N/C2=NC(=N\4)/c4ccccc42)c2ccccc2\3)cc1` (centres undefined) showed an absorption maximum (in CN(C)C=O) of 680 nm.

On to `CN(C)c1ccc(-c2cc3c(ccc4c([N+](=O)[O-])cccc43)c(=O)o2)cc1`, for which the absorption maximum reads like this: (in CCOC(C)=O) 435 nm; (in CO) 439 nm.

In turn, `Nc1cccc2c1C(=O)c1ccccc1-2` had an absorption maximum (in C1CCCCC1) of 407 nm, an absorption maximum (in CC#N) of 420 nm, an absorption maximum (in CCO) of 431 nm and an absorption maximum (in c1ccccc1) of 416 nm.

The compound `c1ccc(C2=C(c3ccccc3)c3cccc4c3c(cc3nc5c(-c6ccccc6)ccc(-c6ccccc6)c5nc34)O2)cc1` had an absorption maximum (in ClCCl) of 503 nm.

On to `CN(C)c1ccc(C2=Nc3scc[n+]3[B-](F)(F)O2)cc1`, for which the absorption maximum came to 402 nm (in C1CCOC1), 402 nm (in CC#N), 405 nm (in Cc1ccccc1) and 407 nm (in ClCCl).

Compound `c1cc2ccc3ccc4cc3c2cc1c1ccc2ccc3ccc(cc3c2c1)c1ccc2c(c1)c1cc4ccc1[C@]13OCCO[C@]21OCCO3` showed an absorption maximum (in Cc1ccccc1) of 366 nm.

With `c1cc2c([nH]c3c4[nH]c5sccc5c4c4nsnc4c23)s1`, the absorption maximum is, setting by setting: (in C1CCOC1) 420 nm; (in CCOC(C)=O) 414 nm; (in CN(C)C=O) 423 nm; (in Cc1ccccc1) 411 nm; (in ClCCl) 415 nm.

`Nc1ccc2ccc3cccc4ccc1c2c34`: the absorption maximum is, setting by setting: (in CC#N) 361 nm; (in CCCCOCCCC) 361 nm; (in CO) 357 nm.

Take `CCCC1(CCC)c2ccccc2-c2ccccc21`: the absorption maximum (in C1CCCCC1) is given as 304 nm.

Take `c1ccc2c(c1)CC1(C2)c2cc(N3c4ccccc4Sc4ccccc43)ccc2-c2ccc(N3c4ccccc4Sc4ccccc43)cc21`: the absorption maximum (in Cc1ccccc1) is 310 nm.

In turn, `CC(C)(C)c1ccc2c(c1)c1cc(C(C)(C)C)ccc1n2-c1ccc(N(c2ccc(-c3ccc4c(c3)C(C)(C)c3cc(-c5ccc(N(c6ccc(-n7c8ccc(C(C)(C)C)cc8c8cc(C(C)(C)C)ccc87)cc6)c6ccc(-n7c8ccc(C(C)(C)C)cc8c8cc(C(C)(C)C)ccc87)cc6)cc5)ccc3-4)cc2)c2ccc(-n3c4ccc(C(C)(C)C)cc4c4cc(C(C)(C)C)ccc43)cc2)cc1` showed an absorption maximum (in ClCCl) of 373 nm.

As for `COc1cccc2cc(C#N)c(=N)oc12`, the absorption maximum (in ClCCl) was found to be 364 nm.

For the compound `O=C1c2ccccc2NC(c2ccccc2)N1Cc1ccccc1` (centres undefined), the absorption maximum is 337 nm (in CC#N); 325 nm (in CCCCCCCCCCCCCCCC); 345 nm (in CO); 336 nm (in ClC(Cl)Cl); 334 nm (in c1ccccc1).

The compound `COC1=[N+]2C(=C(c3ccccc3)c3cc(SC#N)c(OC)n3[B-]2(F)F)C=C1SC#N` showed an absorption maximum (in CC#N) of 513 nm; an absorption maximum (in CCCCCC) of 518 nm; an absorption maximum (in CCOC(C)=O) of 515 nm; an absorption maximum (in CO) of 512 nm; an absorption maximum (in ClCCl) of 518 nm.

For the setting “in CS(C)=O”, `Cc1ccc(-c2c3nc(c(-c4ccc(C)cc4)c4ccc([nH]4)c(-c4ccc(C)cc4)c4nc(c(-c5ccc(C)cc5)c5ccc2[nH]5)C=C4N2CCOCC2)C=C3)cc1` had an absorption maximum of 653 nm.

For the compound `c1ccc2c(-n3cnc4ccccc43)cccc2c1`, the absorption maximum is, setting by setting: (in C1CCCCC1) 283 nm; (in C1CCOC1) 282 nm; (in CC#N) 286 nm; (in CCO) 284 nm; (in CCOC(C)=O) 283 nm; (in CCOCC) 284 nm. The absorption maximum (in CO) amounted to 284 nm, the absorption maximum (in Cc1ccccc1) is 282 nm and the absorption maximum (in ClC(Cl)Cl) was 285 nm.

Where the note is “in ClCCl”, `O=S(=O)(c1ccc2c(c1)c1ccccc1n2-c1ccccc1)c1ccc2c(c1)c1ccccc1n2-c1ccccc1` registered an absorption maximum of 290 nm.

Turning to `O=c1cc2c(-c3c(O)c4cccc5ccc6oc(=O)cc3c6c54)c(O)c3cccc4ccc(o1)c2c43`, the absorption maximum (in CC1CCCO1) is given as 486 nm.

Under “in ClC(Cl)Cl”, `C(=N\c1ccc(-c2cn3nc(-c4cccs4)sc3n2)cc1)/c1ccc2ccc3cccc4ccc1c2c34` returned an absorption maximum of 403 nm.

On to `C(#Cc1ccccc1C#Cc1ccccc1)c1ccccc1`, for which, under “in CC#N”, the absorption maximum was found to be 310 nm.

On to `Cc1cc(-n2c3ccccc3c3ccccc32)ccc1-c1ccc(S(=O)(=O)c2ccccc2)cc1C`, for which the absorption maximum (in Cc1ccccc1) worked out at 340 nm.

On to `O=C([O-])c1ccccc1-c1c2cc(Br)c(=O)c(Br)c-2oc2c(Br)c([O-])c(Br)cc12`, for which the absorption maximum by setting is: (in CC(C)O) 529 nm; (in CCO) 527 nm; (in CO) 522 nm; (in O) 515 nm.

Compound `COc1ccc(C2=C3C(C)=CC(C=Cc4ccc(C(=O)OC5C[C@H]6CCC5(C)C6(C)C)cc4)=[N+]3[B-](F)(F)n3c(C)cc(C)c32)cc1` (some centres undefined) yielded an absorption maximum (in Cc1ccccc1) of 568 nm.

Compound `[O-]c1ccc2ccccc2c1` showed an absorption maximum (in O) of 346 nm.

`CC(C)(C)NC(=O)c1cccc2ccc3c4ccc(F)cc4c4cc(F)ccc4c3c12` yielded an absorption maximum (in ClCCl) of 329 nm.

Compound `Cc1c2c(c(C)c3ccccc13)C1=C2C=CC2Nc3ccccc3NC12` (centres undefined) had an absorption maximum (in ClC(Cl)Cl) of 437 nm.

`CC(C)(C)c1ccc2c(c1)c1cc(C(C)(C)C)ccc1n2-c1ccc(C#Cc2ccc3c4ccc(C#Cc5ccc(/C=C(/C#N)C(=O)O)cc5)cc4n(-c4ccc(C(F)(F)F)cc4)c3c2)cc1`: the absorption maximum (in ClCCl) amounted to 386 nm.

In the case of `O=C1/C(=C2\Sc3ccc(S(=O)(=O)O)cc3C2=O)Sc2ccc(S(=O)(=O)O)cc21`, the absorption maximum by setting is: (in C1COCCO1) 530 nm; (in CN(C)C=O) 551 nm; (in CO) 553 nm; (in CS(C)=O) 553 nm; (in O) 546 nm.

Regarding `CC1(C)OB(c2ccc3ccc4cccc5ccc2c3c45)OC1(C)C`, the absorption maximum (in Cc1ccccc1) was 378 nm.

As for `CCCCCCCCn1c2cc(/C=C/c3ccc(N(c4ccccc4)c4ccccc4)cc3)ccc2c2cc3c(cc21)c1ccc(/C=C/c2ccc(N(c4ccccc4)c4ccccc4)cc2)cc1n3CCCCCCCC`, the absorption maximum (in Cc1ccccc1) is 416 nm.

`Cc1c(C(=O)c2ccccc2)c2ccc3cccc4c5cccc6ccc1c(c65)c2c34`: for the setting “in ClCCl”, the absorption maximum is 391 nm.

In turn, `CCCCCCCCc1ccc(-c2c3cc(-c4cc(CCCCCCCC)c(-c5ccc(-c6sc(/C=C7\SC(=S)N(CC)C7=O)cc6CCCCCCCC)s5)s4)sc3c(-c3ccc(CCCCCCCC)s3)c3cc(-c4cc(CCCCCCCC)c(-c5ccc(-c6sc(/C=C7\SC(=S)N(CC)C7=O)cc6CCCCCCCC)s5)s4)sc23)s1` returned an absorption maximum (in ClC(Cl)Cl) of 509 nm.

In turn, `CC1=CC2=C3C(=C4C(C)=C(c5ccc(-c6nc(-c7ccccc7)c(-c7ccccc7)[nH]6)cc5)S[C@@]4(C)[C@]2(C)S1)C(F)(F)C(F)(F)C3(F)F` returned an absorption maximum (in C1CCOC1) of 546 nm.

Turning to `F[B-]1(F)OC(C#Cc2ccccc2)=C2CCc3ccccc3C2=[O+]1`, where the note is “in ClCCl”, the absorption maximum is 431 nm.

Where the note is “in ClCCl”, `F[B-]1(F)OC(C#Cc2ccccc2)=CC(c2ccccc2)=[O+]1` returned an absorption maximum of 401 nm.

Take `CCCCN(CCCC)c1ccc(C#Cc2cc(C#Cc3cc(C(F)(F)F)cc(C(F)(F)F)c3)c(C#Cc3cc(C(F)(F)F)cc(C(F)(F)F)c3)cc2C#Cc2ccc(N(CCCC)CCCC)cc2)cc1`: the absorption maximum (in ClCCl) is recorded as 410 nm.

Turning to `C(#Cc1ccc2ccc3cccc4ccc1c2c34)c1ccccc1`, the absorption maximum (in Cc1ccccc1) is reported as 362 nm.

As to `Cc1cccc(C)c1Nc1ccc(/C=C/c2cccnc2)cc1`, the absorption maximum by setting is: (in CC#N) 351 nm; (in CCCCCC) 346 nm.
